We go through one molecule from the NIST ThermoML archive (doi:10.1021/je100198g).

± gives the expanded uncertainty stated by the source.

For this data set the following is noted: 297.9 K, Liquid mixture 1, Pendant drop shape.

Turning to `O=C=O` [carbon dioxide] + O, the interfacial tension turned out to be 31.9 ± 0.7 mN/m (7020 kPa); 31.9 ± 0.7 mN/m (8020 kPa); 31.8 ± 0.7 mN/m (10010 kPa); 30.6 ± 0.7 mN/m (14990 kPa); 30 ± 0.7 mN/m (19990 kPa).
